ChEMBL document CHEMBL1177813, “Design and synthesis of trivalent ligands targeting opioid, cholecystokinin, and melanocortin receptors for the treatment of pain” (Bioorg Med Chem Lett, 2010)
Active and inactive are the calls of the source. No cut-off for these calls is given here. Where a SMILES comes first, the peptide text is derived from it. [ ]: non-standard residue; d: D form. Nle = CCCC[C@H](N)C(=O)O

Legend:
[1] = Agonist activity at CCK receptor in Hartley guinea pig ileum longitudinal muscle with myenteric plexus assessed as inhibition of electrically-stimulated muscle contraction at 1 uM relative to KCl; format: functional, Cavia porcellus; design: scale not given: the % may be the effect or the level left
[2] = target: T1, Gastrin/cholecystokinin type B receptor (Homo sapiens, UniProt P32239); test: Displacement of [125I]CCK-8(SO3) from human CCK2 receptor expressed in human HEK293 cells; format: cell-based
T1 sequence (P32239 whole entry): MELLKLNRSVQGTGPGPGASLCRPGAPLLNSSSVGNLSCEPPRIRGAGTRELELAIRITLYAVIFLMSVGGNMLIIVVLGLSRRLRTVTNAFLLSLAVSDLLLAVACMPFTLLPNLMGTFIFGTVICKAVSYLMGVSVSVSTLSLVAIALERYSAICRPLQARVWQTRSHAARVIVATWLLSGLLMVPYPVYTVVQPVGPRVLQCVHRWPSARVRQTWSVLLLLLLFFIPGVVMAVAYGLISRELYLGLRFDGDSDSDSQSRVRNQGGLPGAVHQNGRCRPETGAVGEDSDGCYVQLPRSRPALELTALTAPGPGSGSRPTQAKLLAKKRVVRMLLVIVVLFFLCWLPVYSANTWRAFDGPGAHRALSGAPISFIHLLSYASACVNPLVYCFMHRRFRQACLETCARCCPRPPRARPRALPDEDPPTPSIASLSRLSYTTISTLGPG

Cavia porcellus = species on record: Cavia porcellus; test: […] activity at CCK receptor in Hartley guinea pig ileum longitudinal muscle with myenteric plexus assessed as inhibition of CCK8-stimulated muscle contraction at 1 uM; format: functional, tissue-based
[3] = target: Delta-type opioid receptor (Mus musculus, UniProt P32300); test: Agonist activity at delta opioid receptor in mouse vas deferens assessed as inhibition of electrically-stimulated muscle contraction; format: functional, tissue-based
Mu-type opioid receptor [4] = target: Mu-type opioid receptor (Rattus norvegicus, UniProt P33535); test: Displacement of [3H]DAMGO from rat mu opioid receptor expressed in mouse HN9.10 cells; format: cell-based
[5] = target: T2, Cholecystokinin receptor type A (Homo sapiens, UniProt P32238); test: Displacement of [125I]CCK-8(SO3) from human CCK1 receptor expressed in human HEK293 cells; format: cell-based
T2 sequence (P32238 whole entry): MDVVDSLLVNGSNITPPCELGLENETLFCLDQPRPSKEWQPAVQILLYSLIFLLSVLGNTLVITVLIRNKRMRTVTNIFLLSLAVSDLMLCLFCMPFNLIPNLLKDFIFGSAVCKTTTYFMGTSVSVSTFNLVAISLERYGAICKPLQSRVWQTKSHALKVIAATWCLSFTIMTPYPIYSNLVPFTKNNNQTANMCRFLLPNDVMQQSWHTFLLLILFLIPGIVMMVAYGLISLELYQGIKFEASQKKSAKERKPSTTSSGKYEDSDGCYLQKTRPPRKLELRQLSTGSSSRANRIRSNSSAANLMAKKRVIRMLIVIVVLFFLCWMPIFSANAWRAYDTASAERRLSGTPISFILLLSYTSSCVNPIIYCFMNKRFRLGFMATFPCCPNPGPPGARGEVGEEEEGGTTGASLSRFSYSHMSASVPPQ

Melanocortin receptor 4 = Melanocortin receptor 4 (Homo sapiens, UniProt P32245); test: Displacement of Eu-NDP-alphaMSH from human MC4 receptor expressed in human HEK293 cells; format: cell-based
[6] = […] activity at CCK receptor in Hartley guinea pig ileum longitudinal muscle with myenteric plexus assessed as inhibition of CCK8-stimulated muscle contraction; format: functional, Cavia porcellus
Mu-type opioid receptor [7] = target: Mu-type opioid receptor (Cavia porcellus, UniProt P97266); test: Agonist activity at mu opioid receptor in guinea pig ileum assessed as inhibition of electrically-stimulated muscle contraction; format: functional, tissue-based
[8] = target: Delta-type opioid receptor (Homo sapiens, UniProt P41143); test: Displacement of [3H]DPDPE from human delta opioid receptor expressed in mouse HN9.10 cells; format: cell-based
Homo sapiens = species on record: Homo sapiens; test: Selectivity ratio of Ki for human CCK1 receptor to Ki for human CCk2 receptor
[9] = target: Delta-type opioid receptor (Mus musculus) (UniProt P32300); test: Agonist activity at delta opioid receptor in mouse vas deferens assessed as inhibition of electrically-stimulated muscle contraction at 1 uM; format: functional, tissue-based; design: scale not given: the % may be the effect or the level left
[10] = target: Mu-type opioid receptor (Cavia porcellus) (UniProt P97266); test: Agonist activity at mu opioid receptor in guinea pig ileum assessed as inhibition of electrically-stimulated muscle contraction at 1 uM; format: functional, tissue-based; design: scale not given: the % may be the effect or the level left
Chain of Mu-type opioid receptor (Cavia porcellus) (P97266 whole entry): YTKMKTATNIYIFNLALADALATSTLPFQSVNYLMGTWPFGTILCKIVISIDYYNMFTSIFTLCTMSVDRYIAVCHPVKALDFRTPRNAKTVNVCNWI

Chain of Mu-type opioid receptor (Cavia porcellus, UniProt P97266) (P97266 whole entry): as above
Chain of Delta-type opioid receptor (Homo sapiens, UniProt P41143) (P41143 whole entry): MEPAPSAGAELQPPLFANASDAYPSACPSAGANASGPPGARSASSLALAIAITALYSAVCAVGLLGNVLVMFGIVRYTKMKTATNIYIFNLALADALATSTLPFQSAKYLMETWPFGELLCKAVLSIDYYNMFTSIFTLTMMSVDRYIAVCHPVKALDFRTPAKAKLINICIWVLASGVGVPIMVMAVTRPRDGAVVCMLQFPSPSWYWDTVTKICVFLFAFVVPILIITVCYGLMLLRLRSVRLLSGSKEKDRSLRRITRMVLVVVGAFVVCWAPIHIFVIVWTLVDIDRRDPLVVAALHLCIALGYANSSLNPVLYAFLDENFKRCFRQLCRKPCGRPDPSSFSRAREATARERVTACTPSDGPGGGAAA
Chain of Delta-type opioid receptor (Mus musculus, UniProt P32300) (P32300 whole entry): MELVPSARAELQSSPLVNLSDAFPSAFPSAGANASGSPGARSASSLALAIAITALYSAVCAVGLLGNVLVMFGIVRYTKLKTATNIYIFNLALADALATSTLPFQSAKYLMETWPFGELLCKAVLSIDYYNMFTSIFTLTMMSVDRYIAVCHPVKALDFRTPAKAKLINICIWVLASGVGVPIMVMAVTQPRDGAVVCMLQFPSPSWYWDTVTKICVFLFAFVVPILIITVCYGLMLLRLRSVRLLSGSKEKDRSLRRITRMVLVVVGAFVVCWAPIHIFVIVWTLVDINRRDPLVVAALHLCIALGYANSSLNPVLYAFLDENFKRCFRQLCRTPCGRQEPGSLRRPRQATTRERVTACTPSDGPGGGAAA
Chain of Mu-type opioid receptor (Rattus norvegicus, UniProt P33535) (P33535 whole entry): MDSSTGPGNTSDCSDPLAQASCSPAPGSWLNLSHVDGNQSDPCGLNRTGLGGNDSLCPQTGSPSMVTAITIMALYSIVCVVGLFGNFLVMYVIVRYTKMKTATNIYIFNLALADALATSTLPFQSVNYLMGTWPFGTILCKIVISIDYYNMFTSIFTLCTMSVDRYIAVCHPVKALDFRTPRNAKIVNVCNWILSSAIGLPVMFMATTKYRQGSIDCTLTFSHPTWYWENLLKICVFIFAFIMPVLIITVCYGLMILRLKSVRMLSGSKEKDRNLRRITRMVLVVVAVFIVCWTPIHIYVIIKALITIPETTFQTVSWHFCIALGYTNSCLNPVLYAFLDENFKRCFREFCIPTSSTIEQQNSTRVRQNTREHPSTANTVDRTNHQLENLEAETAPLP
Chain of Melanocortin receptor 4 (P32245 whole entry): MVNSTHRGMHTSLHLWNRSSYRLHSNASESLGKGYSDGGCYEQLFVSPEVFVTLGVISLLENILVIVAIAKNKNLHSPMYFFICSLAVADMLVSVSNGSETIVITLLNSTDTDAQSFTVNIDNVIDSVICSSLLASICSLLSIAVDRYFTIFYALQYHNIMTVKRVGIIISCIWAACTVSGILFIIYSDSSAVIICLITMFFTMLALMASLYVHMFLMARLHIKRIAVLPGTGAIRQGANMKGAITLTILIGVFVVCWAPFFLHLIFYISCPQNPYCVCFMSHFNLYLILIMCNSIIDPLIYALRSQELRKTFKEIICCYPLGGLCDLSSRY
Chain of Delta-type opioid receptor (Mus musculus) (P32300 whole entry): as the sequence (P32300 whole entry) above

SMILES | Activity [1] [%] | Ki ([2]; hek293) | Ke (Cavia porcellus) | IC50 [3] [nM] | IC50 (Mu-type opioid receptor [4]) [nM] | Ki (Mu-type opioid receptor [4]) [nM] | IC50 [5] [nM] | Ki ([5]; read-out: Ki) [nM] | IC50 [2] [nM] | Ki ([2]; read-out: Ki) [nM] | IC50 (Melanocortin receptor 4) [nM] | Ke [6] [nM] | IC50 (Mu-type opioid receptor [7]) [nM] | IC50 [8] [nM] | Ki [8] [nM] | Ki ([5]; hek293) | Ratio Ki (Homo sapiens) | Activity [9] [%] | Activity [10] [%]
Cc1cc(O)cc(C)c1C[C@H](N)C(=O)N1CC(=O)N[C@@H](Cc2cnc[nH]2)C(=O)N[C@H](Cc2ccccc2)C(=O)N[C@@H](CCCNC(=N)N)C(=O)N[C@@H](Cc2c[nH]c3ccccc23)C(=O)N[C@H](C(=O)N[C@@H](CC(=O)O)C(=O)N[C@@H](Cc2ccccc2)C(N)=O)CSSC[C@@H](N)C1=O | 0 | Not Active | inactive | – | – | – | – | – | – | – | – | – | – | – | – | – | – | – | –
CCCC[C@H](NC(=O)[C@H](Cc1c[nH]c2ccccc12)NC(=O)[C@H](CCCNC(=N)N)NC(=O)[C@@H](Cc1ccc2ccccc2c1)NC(=O)[C@H](Cc1cnc[nH]1)NC(=O)[C@H](Cc1ccccc1)NC(=O)CNC(=O)[C@@H](C)NC(=O)[C@@H](N)Cc1c(C)cc(O)cc1C)C(=O)N[C@@H](CC(=O)O)C(=O)N[C@@H](Cc1ccccc1)C(N)=O | 0 | – | – | 11 | 0.251 | 0.13 | 20 | 18 | 126 | 110 | 160 | 940 | 8.3 | – | – | – | – | – | –
Cc1cc(O)cc(C)c1C[C@H](N)C(=O)N1CC(=O)N[C@@H](Cc2cnc[nH]2)C(=O)N[C@H](Cc2ccc3ccccc3c2)C(=O)N[C@@H](CCCNC(=N)N)C(=O)N[C@@H](Cc2c[nH]c3ccccc23)C(=O)N[C@H](C(=O)N[C@@H](CC(=O)O)C(=O)N[C@@H](Cc2ccccc2)C(N)=O)CSSC[C@@H](N)C1=O | 0 | Not Active | inactive | 610 | 12.6 | 5.9 | – | – | – | – | 440 | – | 280 | 12.6 | 5.6 | Not Active | – | – | –
CCCC[C@H](NC(=O)[C@H](Cc1c[nH]c2ccccc12)NC(=O)[C@H](CCCNC(=N)N)NC(=O)[C@@H](Cc1ccc2ccccc2c1)NC(=O)[C@H](Cc1cnc[nH]1)NC(=O)[C@H](Cc1ccccc1)NC(=O)[C@@H](C)NC(=O)[C@@H](N)Cc1c(C)cc(O)cc1C)C(=O)N[C@@H](CC(=O)O)C(=O)N[C@@H](Cc1ccccc1)C(N)=O | 0 | – | inactive | – | – | – | – | – | – | – | – | – | – | – | – | – | – | – | –
CCCC[C@H](NC(=O)[C@H](Cc1c[nH]c2ccccc12)NC(=O)[C@H](CCCN=C(N)N)NC(=O)[C@@H](Cc1ccc2ccccc2c1)NC(=O)[C@H](Cc1cnc[nH]1)NC(=O)[C@@H](N)Cc1ccccc1)C(N)=O | – | – | – | – | – | – | – | – | – | – | 200 | – | – | – | – | – | – | – | –
CCCC[C@H](NC(=O)[C@H](Cc1c[nH]c2ccccc12)NC(=O)[C@H](CCCN=C(N)N)NC(=O)[C@@H](Cc1ccc2ccccc2c1)NC(=O)[C@H](Cc1cnc[nH]1)NC(=O)[C@H](Cc1ccccc1)NC(=O)[C@@H](C)NC(=O)[C@@H](N)Cc1c(C)cc(O)cc1C)C(=O)N[C@@H](CC(=O)O)C(=O)N[C@@H](Cc1ccccc1)C(N)=O | – | – | – | 110 | 10 | 4.9 | 0.794 | – | 200 | 180 | 500 | – | 66 | 7.94 | 3.7 | – | – | – | –
C[C@@H](NC(=O)[C@@H](N)Cc1ccc(O)cc1)C(=O)NCC(=O)N[C@@H](Cc1ccccc1)C(=O)NCCCC[C@H](NC(=O)[C@H](Cc1c[nH]c2ccccc12)NC(=O)[C@H](CCCNC(=N)N)NC(=O)[C@@H](Cc1ccc(Cl)cc1)NC(=O)[C@@H](N)Cc1cnc[nH]1)C(=O)N[C@@H](CC(=O)O)C(=O)N[C@@H](Cc1ccccc1)C(N)=O | 0 | Not Active | inactive | – | – | – | – | – | – | – | – | – | – | – | – | Not Active | – | – | –
CCCC[C@H](NC(=O)[C@H](Cc1c[nH]c2ccccc12)NC(=O)[C@H](CCCNC(=N)N)NC(=O)[C@@H](Cc1ccc2ccccc2c1)NC(=O)[C@H](Cc1cnc[nH]1)NC(=O)[C@H](Cc1ccccc1)NC(=O)CNC(=O)[C@@H](C)NC(=O)[C@@H](N)Cc1ccc(O)cc1)C(=O)N[C@@H](CC(=O)O)C(=O)N[C@@H](Cc1ccccc1)C(N)=O | 0 | – | inactive | 60 | 1.26 | 0.69 | 10 | 9 | 126 | 120 | 260 | – | 200 | 6.31 | 2.9 | – | 0.075 | – | –
CCCC[C@H](NC(=O)[C@H](Cc1c[nH]c2ccccc12)NC(=O)[C@H](CCCNC(=N)N)NC(=O)[C@@H](Cc1ccc2ccccc2c1)NC(=O)[C@H](Cc1cnc[nH]1)NC(=O)[C@H](Cc1ccccc1)NC(=O)[C@@H](C)NC(=O)[C@@H](N)Cc1ccc(O)cc1)C(=O)N[C@@H](CC(=O)O)C(=O)N[C@@H](Cc1ccccc1)C(N)=O | 0 | – | inactive | 370 | 501 | 250 | 1.58 | 1.6 | 200 | 190 | 700 | – | 2300 | 79.4 | 42 | – | 119 | – | –
CCCC[C@H](NC(=O)[C@@H](N)Cc1ccc(O)cc1)C(=O)N[C@@H](CC(=O)O)C(=O)N[C@@H](Cc1ccccc1)C(N)=O (H-Y[Nle]DF-NH2) | – | – | – | – | – | – | – | – | – | – | – | – | – | – | – | Not Active | – | – | –
CCCC[C@H](NC(=O)[C@H](Cc1c[nH]c2ccccc12)NC(=O)[C@H](CCCNC(=N)N)NC(=O)[C@@H](Cc1ccccc1)NC(=O)[C@H](Cc1cnc[nH]1)NC(=O)[C@H](Cc1ccccc1)NC(=O)CNC(=O)[C@@H](C)NC(=O)[C@@H](N)Cc1ccc(O)cc1)C(=O)N[C@@H](CC(=O)O)C(=O)N[C@@H](Cc1ccccc1)C(N)=O | 0 | – | inactive | 40 | 31.6 | 14 | 2510 | 1400 | 31.6 | 18 | 1300 | – | 130 | 12.6 | 6.2 | – | – | – | –
N=C(N)NCCC[C@@H]1NC(=O)[C@H](Cc2ccc(Cl)cc2)NC(=O)[C@H](Cc2cnc[nH]2)NC(=O)CNC(=O)[C@H](NC(=O)[C@@H](N)Cc2ccc(O)cc2)CC(=O)NCCCC[C@@H](C(=O)N[C@@H](CC(=O)O)C(=O)N[C@H](Cc2ccccc2)C(N)=O)NC(=O)[C@H](Cc2cc3ccccc3[nH]2)NC1=O | 0 | – | inactive | – | 3980 | 2100 | 126 | 560 | 1000 | 930 | 32 | – | – | 2510 | 1300 | – | – | 16 | 0
CCCC[C@H](NC(=O)[C@H](Cc1c[nH]c2ccccc12)NC(=O)[C@H](CCCN=C(N)N)NC(=O)[C@@H](Cc1ccc2ccccc2c1)NC(=O)[C@H](Cc1cnc[nH]1)NC(=O)[C@H]1Cc2ccccc2CN1C(=O)[C@@H](N)Cc1c(C)cc(O)cc1C)C(=O)N[C@@H](CC(=O)O)C(=O)N[C@@H](Cc1ccccc1)C(N)=O | – | – | – | 130 | 39.8 | 18 | 31.6 | 32 | 126 | 100 | 160 | – | 570 | 12.6 | 6.2 | – | – | – | –
C[C@@H](NC(=O)[C@@H](N)Cc1ccc(O)cc1)C(=O)NCC(=O)N[C@@H](Cc1ccccc1)C(=O)NCCCC[C@H](NC(=O)[C@H](Cc1c[nH]c2ccccc12)NC(=O)[C@H](CCCN=C(N)N)NC(=O)[C@@H](Cc1ccc(Cl)cc1)NC(=O)[C@@H](N)Cc1cnc[nH]1)C(=O)N[C@@H](CC(=O)O)C(=O)N[C@@H](Cc1ccccc1)C(N)=O | – | – | – | – | – | – | – | – | – | – | – | – | 330 | – | – | – | – | – | –
CCCC[C@H](NC(=O)[C@H](Cc1c[nH]c2ccccc12)NC(=O)[C@H](CCCNC(=N)N)NC(=O)[C@@H](Cc1ccc2ccccc2c1)NC(=O)[C@H](Cc1cnc[nH]1)NC(=O)[C@H]1Cc2ccccc2CN1C(=O)[C@@H](N)Cc1c(C)cc(O)cc1C)C(=O)N[C@@H](CC(=O)O)C(=O)N[C@@H](Cc1ccccc1)C(N)=O | 0 | – | inactive | – | – | – | – | – | – | – | – | – | – | – | – | – | – | – | –
